# Assay results from the supplement of paper PMC10307832.
# Columns and labels:
# Test in all cases: relative viability (nuclei count vs DMSO), 5 days (fraction); higher = more cells survive
# [1] = compound: CN(C)C(=N)NC(=N)N [Metformin] + C[C@]1(O)C[C@@H](c2nc(-c3ccc4ccc(-c5ccccc5)nc4c3)c3c(N)nccn32)C1 [Linsitinib] (partner 1 µM)
# Summary of the method: (§1)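 Five library-drug doses in √10 steps were combined with a fixed anchor-drug dose, or a single drug was given alone, by pin tool to lung cancer cell lines in 1536-well plates the day after seeding. Nuclei were stained and counted after 5 days. Relative viability is the nuclei count in treated wells over that in vehicle wells, taken as the median of duplicate plates.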
# [2] = compound: N#CC1(c2ccc(NC(=O)c3cccnc3NCc3ccncc3)cc2)CCCC1 [Apatinib] + O=C(c1cc(Cc2n[nH]c(=O)c3ccccc23)ccc1F)N1CCN(C(=O)C2CC2)CC1 [Olaparib] (partner 8 µM)
# Summary of the method: as §1
# [3] = compound: N#CC1(c2ccc(NC(=O)c3cccnc3NCc3ccncc3)cc2)CCCC1 [Apatinib] + C[C@@H](Oc1cc(-c2cnn(C3CCNCC3)c2)cnc1N)c1c(Cl)ccc(F)c1Cl [Crizotinib] (partner 1 µM)
# Summary of the method: as §1
# [4] = compound: N#CC1(c2ccc(NC(=O)c3cccnc3NCc3ccncc3)cc2)CCCC1 [Apatinib] + Nc1nc2[nH]cc(CCc3ccc(C(=O)N[C@@H](CCC(=O)O)C(=O)O)cc3)c2c(=O)[nH]1 [Pemetrexed] (partner 0.2 µM)
# Summary of the method: as §1
Cell Line,relative viability ([1]; first compound 10 µM),relative viability ([1]; first compound 31.62 µM),relative viability ([1]; first compound 100 µM),relative viability ([1]; first compound 316.23 µM),relative viability ([1]; first compound 1000 µM),relative viability ([2]; first compound 0.08 µM),relative viability ([2]; first compound 0.253 µM),relative viability ([2]; first compound 0.8 µM),relative viability ([2]; first compound 2.53 µM),relative viability ([2]; first compound 8 µM),relative viability ([3]; first compound 0.08 µM),relative viability ([3]; first compound 0.253 µM),relative viability ([3]; first compound 0.8 µM),relative viability ([3]; first compound 2.53 µM),relative viability ([3]; first compound 8 µM),relative viability ([4]; first compound 0.08 µM),relative viability ([4]; first compound 0.253 µM),relative viability ([4]; first compound 0.8 µM),relative viability ([4]; first compound 2.53 µM),relative viability ([4]; first compound 8 µM)
NCI-H520,1.09,0.842,1.02,0.914,0.931,0.375,0.32,0.401,0.28,0.314,0.912,0.701,0.737,0.614,0.45,0.668,0.678,0.736,0.552,0.322
NCI-H2023,–,0.687,0.806,–,0.515,0.429,0.508,0.462,0.35,0.395,0.717,0.737,0.69,0.699,0.643,0.212,0.278,0.2,0.191,0.204
NCI-H838,1.04,1.09,1.05,0.988,1.02,0.853,0.831,0.762,0.69,0.696,0.892,0.936,0.77,0.76,0.775,0.259,0.291,0.228,0.221,0.207
SW 1573,0.916,0.811,0.969,0.72,0.996,0.586,0.506,0.463,0.325,0.357,0.946,0.867,0.748,0.74,0.58,0.87,0.854,0.806,0.708,0.394
HCC-15,0.877,0.965,0.953,0.857,0.947,0.657,0.76,0.686,0.615,0.54,0.85,0.814,0.811,0.799,0.717,0.245,0.225,0.217,0.192,0.167
NCI-H1666,0.863,1,0.962,0.703,1.09,0.803,0.8,0.705,0.743,0.765,1.15,1.28,0.985,1.14,0.718,0.874,0.858,0.842,0.802,0.672
A-427,1.09,1.13,1.09,1.1,1.04,0.66,0.71,0.73,0.641,0.612,0.902,0.969,0.919,0.808,0.705,0.993,0.903,0.974,0.896,0.932
LU99A,0.493,0.491,0.466,0.377,0.514,0.286,0.269,0.276,0.252,0.207,0.585,0.55,0.526,0.444,0.458,0.189,0.198,0.183,0.174,0.212
EPLC-272H,1.39,1.39,1.26,1.08,1.51,0.759,0.806,0.822,0.605,0.604,0.944,0.933,0.767,0.8,0.991,0.275,0.333,0.359,0.322,0.199
